In ChEMBL document CHEMBL1201862, “PubChem BioAssay data set” (2004):
Calls of active or inactive are those of the source.

Key:
[1] = cytotoxicity in HEK-293T cells, dose response, cytotoxicity control for TCR NF-kB inhibitor project, luminescence, T-cell screen hits (AID 489026); format: functional, cell-based;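 further: cells exposed to compound about 14 hours before the viability readout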
INS1 = test: beta cell apoptosis inhibitors, cytokine rescue, dose response, luminescence, retest (AID 449756); format: functional, cell-based; details: Rattus norvegicus;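 further: cell death triggered by IL-1 beta plus TNF-alpha plus IFN-gamma mixture; protective hits raise ATP signal compared with cytokine alone wells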
[2] = biological target: Heat shock protein HSP 90-alpha (Homo sapiens, UniProt P07900); format: functional, organism-based
Prothrombin = Prothrombin (Homo sapiens, UniProt P00734); test: Thrombin 1536 HTS Dose Response Confirmation. [Related pubchem assays: 1046 (Thrombin 1536 HTS; hits were confirmed in this assay)]; format: functional
[3] = inhibitors of SNCA 5'UTR-driven reporter translation, confirmation, H4 neuroglioma cells, luminescence (AID 1988); format: functional, cell-based
[4] = Luminescence Cell-Based Dose Response HTS to Identify Inhibitors of 5'UTR Stem-Loop Driven Prion Protein mRNA Translation in H4 Neuroglioblastoma Cells. [Related pubchem assays: 1827 (Project Summary), 1813 (Primary HTS)]; format: functional
[5] = inhibitors of firefly luciferase expression or activity, dose response, H4 neuroglioma cells, luminescence (AID 1990); format: functional, cell-based
[6] = biological target: T1, Short transient receptor potential channel 4 (Mus musculus, UniProt Q9QUQ5); test: mouse TRPC4 channel inhibitors, dose response, cell-based, HEK293 TRPC4/mu-opioid, Fluo-4 calcium (AID 434942); format: functional;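 further: potency of inhibitors blocking the TRPC4 calcium response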
T1 sequence (Q9QUQ5 whole entry): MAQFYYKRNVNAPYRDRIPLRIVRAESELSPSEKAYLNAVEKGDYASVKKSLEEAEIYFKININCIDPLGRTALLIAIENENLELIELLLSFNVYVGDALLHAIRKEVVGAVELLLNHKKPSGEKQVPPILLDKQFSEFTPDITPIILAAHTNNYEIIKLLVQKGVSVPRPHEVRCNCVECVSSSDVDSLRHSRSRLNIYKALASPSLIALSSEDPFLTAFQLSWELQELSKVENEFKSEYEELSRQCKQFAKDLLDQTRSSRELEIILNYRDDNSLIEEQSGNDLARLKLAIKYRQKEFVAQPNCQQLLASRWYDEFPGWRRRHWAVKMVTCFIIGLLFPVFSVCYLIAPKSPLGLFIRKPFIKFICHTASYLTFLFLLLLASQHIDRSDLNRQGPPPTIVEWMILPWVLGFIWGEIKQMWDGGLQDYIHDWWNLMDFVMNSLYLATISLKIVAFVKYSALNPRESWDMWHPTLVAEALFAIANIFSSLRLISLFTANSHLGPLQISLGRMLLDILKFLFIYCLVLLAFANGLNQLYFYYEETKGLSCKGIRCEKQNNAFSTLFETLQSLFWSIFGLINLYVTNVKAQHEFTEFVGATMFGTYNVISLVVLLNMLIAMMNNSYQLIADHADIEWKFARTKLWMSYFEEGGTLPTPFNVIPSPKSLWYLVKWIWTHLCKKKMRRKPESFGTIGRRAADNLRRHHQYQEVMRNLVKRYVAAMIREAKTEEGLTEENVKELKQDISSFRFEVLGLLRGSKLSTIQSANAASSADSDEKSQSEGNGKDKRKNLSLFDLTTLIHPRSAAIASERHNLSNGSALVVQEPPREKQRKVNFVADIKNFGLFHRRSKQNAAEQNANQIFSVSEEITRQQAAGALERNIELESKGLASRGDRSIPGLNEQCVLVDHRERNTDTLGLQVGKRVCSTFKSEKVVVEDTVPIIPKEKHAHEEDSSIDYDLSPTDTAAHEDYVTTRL

[7] = biological target: Dual specificity tyrosine-phosphorylation-regulated kinase 1A (Rattus norvegicus, UniProt Q63470); format: biochemical, Homo sapiens
[8] = cytotoxicity in HEK-293T cells, dose response, cytotoxicity control for BCR NF-kB inhibitor project, luminescence, B-cell screen hits (AID 489021); format: functional, cell-based;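 further: HEK-293T cells carrying an NF-kB luciferase reporter; cells exposed to compound for about 14 hours before viability readout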
[9] = HepG2 cell cytotoxicity, dose response, cytotoxicity control for Shn3 inhibitor project, CellTiter-Glo, cherry-picked (AID 624134); format: functional, cell-based
[10] = biological target: T2, Corticotropin-releasing factor receptor 2/Corticotropin-releasing factor-binding protein (Homo sapiens, UniProt P24387+Q13324); test: activators of CRF receptor 2 with binding protein – uHTS hits, confirmation (AID 602473); format: functional; details: read-out: EC50_Mean
T2 sequence (Q13324 whole entry): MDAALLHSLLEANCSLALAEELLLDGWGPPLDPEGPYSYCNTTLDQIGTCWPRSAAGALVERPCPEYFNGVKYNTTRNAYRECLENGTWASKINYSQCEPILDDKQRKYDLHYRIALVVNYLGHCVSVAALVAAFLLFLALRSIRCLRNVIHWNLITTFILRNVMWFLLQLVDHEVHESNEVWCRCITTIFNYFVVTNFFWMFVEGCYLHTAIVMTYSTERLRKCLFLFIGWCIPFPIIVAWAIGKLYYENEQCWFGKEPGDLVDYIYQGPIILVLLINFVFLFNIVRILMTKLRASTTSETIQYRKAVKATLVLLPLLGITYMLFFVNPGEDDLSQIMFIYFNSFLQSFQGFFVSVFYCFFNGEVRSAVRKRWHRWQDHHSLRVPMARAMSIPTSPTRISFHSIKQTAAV
T2 sequence (P24387 whole entry): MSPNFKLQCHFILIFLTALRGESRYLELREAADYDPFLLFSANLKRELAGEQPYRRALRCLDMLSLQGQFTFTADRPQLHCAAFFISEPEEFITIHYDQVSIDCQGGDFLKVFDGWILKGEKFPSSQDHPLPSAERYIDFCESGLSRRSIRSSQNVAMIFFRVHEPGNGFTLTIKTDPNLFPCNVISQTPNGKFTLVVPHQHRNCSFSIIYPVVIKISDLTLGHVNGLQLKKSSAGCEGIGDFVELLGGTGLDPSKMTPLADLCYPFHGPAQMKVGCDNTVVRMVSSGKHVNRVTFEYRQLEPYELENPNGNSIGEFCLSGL

[11] = biological target: T3, Long-chain-fatty-acid--AMP ligase FadD28 (Mycobacterium tuberculosis, UniProt P9WQ59); test: Fluorescence polarization aasay to screen for inhibitors that compete for the binding of FadD28 to a bisubstrate Measured in Biochemical System Using Plate Reader - 2147-01_Inhibitor_Dose_CherryPick_Activity.; format: functional, Mycobacterium tuberculosis H37Rv
T3 sequence (P9WQ59 whole entry): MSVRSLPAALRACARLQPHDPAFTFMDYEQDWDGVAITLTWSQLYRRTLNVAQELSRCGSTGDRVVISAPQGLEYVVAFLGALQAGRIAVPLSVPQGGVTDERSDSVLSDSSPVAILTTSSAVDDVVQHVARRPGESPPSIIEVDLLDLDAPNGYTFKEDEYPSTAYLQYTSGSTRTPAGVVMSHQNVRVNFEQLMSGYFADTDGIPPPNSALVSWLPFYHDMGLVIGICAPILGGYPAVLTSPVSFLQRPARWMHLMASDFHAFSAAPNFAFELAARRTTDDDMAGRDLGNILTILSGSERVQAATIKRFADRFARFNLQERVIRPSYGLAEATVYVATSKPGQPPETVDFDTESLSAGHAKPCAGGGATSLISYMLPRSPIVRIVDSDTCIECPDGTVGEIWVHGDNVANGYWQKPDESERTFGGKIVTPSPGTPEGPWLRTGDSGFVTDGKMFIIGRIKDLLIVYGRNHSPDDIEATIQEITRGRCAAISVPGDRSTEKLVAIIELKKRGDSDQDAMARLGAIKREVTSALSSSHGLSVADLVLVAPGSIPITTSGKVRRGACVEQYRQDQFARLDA

[12] = biological target: T4, Carboxy-terminal domain RNA polymerase II polypeptide A small phosphatase 1 (Homo sapiens, UniProt Q9GZU7); test: inhibitors of CTDSP1, concentration-response testing, biochemical assay, absorbance-based, actives from ultra-high-throughput screening (AID 540297); format: functional
T4 sequence (Q9GZU7 whole entry): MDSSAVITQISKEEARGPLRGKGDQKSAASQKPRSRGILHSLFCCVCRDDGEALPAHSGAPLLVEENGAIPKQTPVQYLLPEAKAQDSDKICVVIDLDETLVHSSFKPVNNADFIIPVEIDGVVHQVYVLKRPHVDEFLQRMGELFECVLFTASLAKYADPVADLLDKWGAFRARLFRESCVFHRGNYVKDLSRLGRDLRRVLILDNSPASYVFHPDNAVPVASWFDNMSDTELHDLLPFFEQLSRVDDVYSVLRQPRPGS

[13] = biological target: T1, Short transient receptor potential channel 4; test: mouse TRPC4 channel activators, dose response, cell-based, HEK293 TRPC4/mu-opioid, Fluo-4 calcium (AID 434937); format: functional
Nonstructural protein 1 = Nonstructural protein 1 (Influenza A virus, UniProt Q194T2); format: functional, Influenza A virus (A/California/07/2009(H1N1))
[14] = biological target: Glyceraldehyde-3-phosphate dehydrogenase (Homo sapiens, UniProt P04406)
[15] = biological target: T5, Rac GTPase-activating protein 1 (Homo sapiens, UniProt Q9H0H5); test: MgcRacGAP GTPase-activating activity inhibitors, confirmation, biochemical, ADP Hunter fluorescence, primary and confirmatory (AID 624330); format: functional
T5 sequence (Q9H0H5 whole entry): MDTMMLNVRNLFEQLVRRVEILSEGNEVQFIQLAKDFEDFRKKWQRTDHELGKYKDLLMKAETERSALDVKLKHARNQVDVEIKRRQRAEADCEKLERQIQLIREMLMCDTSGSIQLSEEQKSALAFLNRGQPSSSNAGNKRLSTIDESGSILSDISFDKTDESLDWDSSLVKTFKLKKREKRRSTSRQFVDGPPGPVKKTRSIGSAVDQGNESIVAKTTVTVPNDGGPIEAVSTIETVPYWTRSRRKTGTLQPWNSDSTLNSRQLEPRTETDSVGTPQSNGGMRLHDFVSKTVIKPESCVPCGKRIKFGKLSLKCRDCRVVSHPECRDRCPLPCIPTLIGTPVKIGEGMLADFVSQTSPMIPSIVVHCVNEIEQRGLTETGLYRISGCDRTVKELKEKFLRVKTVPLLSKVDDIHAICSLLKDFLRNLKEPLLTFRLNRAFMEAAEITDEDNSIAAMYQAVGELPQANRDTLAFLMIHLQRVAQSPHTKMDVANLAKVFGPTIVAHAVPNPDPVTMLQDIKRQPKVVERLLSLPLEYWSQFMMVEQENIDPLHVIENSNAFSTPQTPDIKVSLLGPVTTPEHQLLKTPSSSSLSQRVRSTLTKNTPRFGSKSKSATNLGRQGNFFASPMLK

Cytochrome P450 3A4 = Cytochrome P450 3A4 (Homo sapiens, UniProt P08684);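 further: CYP3A4 tested as one member of a cytochrome P450 panel screen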
[16] = biological target: Eukaryotic translation initiation factor 4E (Mus musculus, UniProt P63073); test: eIF4E–eIF4G protein interaction inhibitors, dose response, biochemical, TR-FRET (AID 855); format: functional;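 further: potency for disrupting eIF4E binding to eIF4GI seen as loss of FRET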
Chain of Eukaryotic translation initiation factor 4E (P63073 whole entry): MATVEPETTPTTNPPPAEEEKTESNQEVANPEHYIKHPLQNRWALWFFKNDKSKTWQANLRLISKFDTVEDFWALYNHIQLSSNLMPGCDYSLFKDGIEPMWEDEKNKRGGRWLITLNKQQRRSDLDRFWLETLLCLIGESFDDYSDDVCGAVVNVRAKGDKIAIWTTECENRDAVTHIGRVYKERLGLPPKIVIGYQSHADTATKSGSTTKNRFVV

Chain of Glyceraldehyde-3-phosphate dehydrogenase (P04406 whole entry): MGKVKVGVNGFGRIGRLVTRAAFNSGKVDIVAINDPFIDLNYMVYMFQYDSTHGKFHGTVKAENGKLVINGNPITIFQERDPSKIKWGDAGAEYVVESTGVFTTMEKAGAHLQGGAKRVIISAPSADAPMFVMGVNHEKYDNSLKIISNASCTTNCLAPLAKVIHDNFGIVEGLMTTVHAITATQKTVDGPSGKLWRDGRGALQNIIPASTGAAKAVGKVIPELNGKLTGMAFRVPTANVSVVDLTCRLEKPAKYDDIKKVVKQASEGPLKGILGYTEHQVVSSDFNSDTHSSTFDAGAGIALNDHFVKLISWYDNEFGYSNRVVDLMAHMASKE
Chain of Nonstructural protein 1 (Q194T2 whole entry): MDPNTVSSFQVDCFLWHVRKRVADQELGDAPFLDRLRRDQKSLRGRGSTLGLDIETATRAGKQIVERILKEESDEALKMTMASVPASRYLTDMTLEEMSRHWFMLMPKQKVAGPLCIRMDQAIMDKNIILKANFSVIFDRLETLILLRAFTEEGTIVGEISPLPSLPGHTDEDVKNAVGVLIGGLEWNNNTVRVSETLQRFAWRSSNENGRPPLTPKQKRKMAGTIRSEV
Chain of Cytochrome P450 3A4 (P08684 whole entry): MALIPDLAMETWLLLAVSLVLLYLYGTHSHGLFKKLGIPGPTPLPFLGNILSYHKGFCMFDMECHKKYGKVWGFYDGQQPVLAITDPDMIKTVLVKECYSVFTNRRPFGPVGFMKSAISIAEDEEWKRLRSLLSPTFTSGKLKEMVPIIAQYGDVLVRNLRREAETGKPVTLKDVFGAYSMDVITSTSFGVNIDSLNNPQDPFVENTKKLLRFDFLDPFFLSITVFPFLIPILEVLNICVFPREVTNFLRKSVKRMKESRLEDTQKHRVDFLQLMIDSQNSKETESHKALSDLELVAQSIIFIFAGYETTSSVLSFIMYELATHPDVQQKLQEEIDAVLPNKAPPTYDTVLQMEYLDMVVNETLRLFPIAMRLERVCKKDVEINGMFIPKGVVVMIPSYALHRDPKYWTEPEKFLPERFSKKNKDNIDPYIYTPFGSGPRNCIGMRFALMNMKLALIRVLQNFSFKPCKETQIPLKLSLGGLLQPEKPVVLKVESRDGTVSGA

Structure (SMILES): Cc1c(C)c2cccnc2c2ncccc12
- IC50 [1]: > 80 µM (inactive)
- AC50 (INS1): 1.57 µM (active)
- AC50 [2]: 3.99 µM (active)

Structure (SMILES): CCOc1ccc(C(=O)NCC(=O)OC(C)C(=O)NCc2ccco2)cc1OCC (configuration not stated)
- IC50 (Prothrombin): > 50 µM (not active)

Structure (SMILES): S=C(NCc1cccs1)NCC1CCCO1 (configuration not stated)
- IC50 (Prothrombin): > 50 µM (not active)

Structure (SMILES): COc1ccc(/C=N/NC(=O)COc2ccccc2-c2ccccc2)cc1
- EC50 [3]: 0.166 µM (active)
- IC50 [1]: > 80 µM (inactive)
- EC50 [4]: 0.483 µM (active)
- EC50 [5]: 8.05 µM (active)

Structure (SMILES): CCCC(=O)Nc1nc2ccc(S(=O)(=O)N3CCCCC3)cc2s1
- IC50 [1]: > 80 µM (inactive)

Structure (SMILES): COc1ccc(Nc2c3c(nc4ccccc24)CCC3)cc1
- EC50 [6]: 4.22 µM (active)

Structure (SMILES): COc1ccc(/C=C2\SC(=O)NC2=S)cc1OC
- AC50 [7]: 9.55 µM (active)

Structure (SMILES): CCCc1noc2c1/C(=N\O)CC(CC(C)SCC)C2 (configuration not stated)
- EC50 [6]: 1.5 µM (active)

Structure (SMILES): NNC(=O)COc1ccc(-c2nccc(-c3ccc(F)cc3)n2)cc1
- IC50 [8]: > 80 µM (inactive)

Structure (SMILES): CCOc1ccc(Br)cc1C1=CC(=O)C[C@H](c2ccc(OC)cc2)C1
- AC50 [9]: > 70 µM (inactive)
- IC50 [1]: > 80 µM (inactive)
- EC50 [10]: > 53 µM (inactive)

Structure (SMILES): Cc1cccc(NC(=O)CN2C(=O)S/C(=C\c3cccn3-c3cccc(C(=O)O)c3)C2=O)c1
- AC50 [11]: 0.519 µM (active)
- IC50 [12]: 6.83 µM (active)

Structure (SMILES): CCn1cc(CN2CCC(n3nccc3NC(=O)CCCc3ccccc3)CC2)cn1
- EC50 [13]: 1.33 µM (active)
- EC50 [6]: 1.19 µM (active)

Structure (SMILES): Cc1cc(N(C)C)ccc1N=Nc1ccc2ncccc2c1
- IC50 (Nonstructural protein 1): 9.43 µM (active)

Structure (SMILES): CSCC[C@H](NS(=O)(=O)c1ccc(C(C)=O)cc1)c1nnc2ccccn12
- IC50 [12]: 5.88 µM (active)

Structure (SMILES): O=C1C(Cl)=C(N2CCOCC2)C(=O)N1c1ccnc(Cl)c1
- IC50 [14]: > 50 µM (inconclusive)

Structure (SMILES): O=C1C2C3C=CC(C3)C2C(=O)N1c1n[nH]c(CCc2ccccc2)n1 (configuration not stated)
- IC50 [14]: > 100 µM (not active)

Structure (SMILES): COc1ccc(Nc2nc(N)c3ccccc3n2)c(OC)c1
- EC50 [6]: 4.22 µM (active)

Structure (SMILES): COc1ccc(CNc2nc(-c3cccnc3)nn2C(=O)c2ccco2)cc1
- IC50 (Prothrombin): 1.19 µM (active)

Structure (SMILES): C=CCOC(=O)COc1cc(C)cc2oc(=O)c3c(c12)CCC3
- IC50 [8]: > 80 µM (inactive)

Structure (SMILES): CC(C)CN(CC(C)C)c1nc(N)c(C#N)c(CC#N)c1C#N
- EC50 [6]: 5.96 µM (active)

Structure (SMILES): COc1cc(/C=C2\SC(=S)N(NC(=O)c3cccc(O)c3)C2=O)ccc1O
- AC50 [11]: 32 µM (inactive)
- AC50 [7]: 6.23 µM (active)
- IC50 [15]: 54.8 µM (active)

Structure (SMILES): CN1CCN(c2cc(N3CCN(C(=O)c4ccco4)CC3)c3c4c(onc24)-c2ccccc2C3=O)CC1
- IC50 (Nonstructural protein 1): 15.3 µM (active)

Structure (SMILES): CCOC(=O)CN1C(=O)S/C(=C\c2ccc(-c3ccc(C(=O)O)c(Cl)c3)o2)C1=O
- IC50 [12]: 4.84 µM (active)

Structure (SMILES): Cc1c(OC(=O)c2ccc([N+](=O)[O-])cc2)c2c(c[n+]1C)COC(C)(C)OC2
- IC50 [12]: 4.14 µM (active)
- AC50 (Cytochrome P450 3A4): 7.08 µM (inconclusive)
- IC50 [16]: > 64 µM (inactive)
